Assay results: paper PMC5481828, “Construction of a synthetic metabolic pathway for biosynthesis of the non-natural methionine precursor 2,4-dihydroxybutyric acid” (Nature Communications, 2017)

Assays:
Ec-LysC = Ec-LysC (Escherichia coli, UniProt P08660); conditions: 2 mM ATP, 5 mM MgCl2, 50 mM KCl, Hepes pH 7.5, 37 °C
Ms-Ssr = target: T1, Ms-Ssr (Metallosphaera sedula, UniProt A4YGN0); test: NAD(P)H oxidation at […] nm; format: biochemical; conditions: NADPH 0.2 mM, Hepes pH 7.5, 50 mM KCl, 5 mM MgCl2, 37 °C; read-out: affinity
T1 construct: gene Msed_1424
T1 sequence (A4YGN0 1-360): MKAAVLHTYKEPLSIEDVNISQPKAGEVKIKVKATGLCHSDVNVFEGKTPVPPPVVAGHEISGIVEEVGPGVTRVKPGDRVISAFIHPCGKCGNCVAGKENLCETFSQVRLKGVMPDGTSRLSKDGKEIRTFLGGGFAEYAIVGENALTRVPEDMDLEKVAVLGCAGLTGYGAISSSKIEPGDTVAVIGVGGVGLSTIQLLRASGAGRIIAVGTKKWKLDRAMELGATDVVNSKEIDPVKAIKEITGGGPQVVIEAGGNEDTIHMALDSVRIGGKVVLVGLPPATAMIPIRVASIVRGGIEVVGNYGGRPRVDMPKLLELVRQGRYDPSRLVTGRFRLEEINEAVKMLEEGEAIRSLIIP

Bs-Asd = Bs-Asd (Bacillus subtilis, UniProt Q04797, E218Q); test: NADPH oxidation, substrate made in situ by malate kinase; format: biochemical; conditions: biosynthetic direction, 0.2 mM NADPH, 2 mM ATP, 20 mM malate, Hepes pH 7, 37 °C
Mj-Asd = target: T2, Mj-Asd (Methanocaldococcus jannaschii, UniProt Q57658); test: as above; format: biochemical; conditions: biosynthetic direction, 0.2 mM NADPH, 2 mM ATP, 20 mM malate, Hepes pH 7, 37 °C
T2 sequence (Q57658 1-354): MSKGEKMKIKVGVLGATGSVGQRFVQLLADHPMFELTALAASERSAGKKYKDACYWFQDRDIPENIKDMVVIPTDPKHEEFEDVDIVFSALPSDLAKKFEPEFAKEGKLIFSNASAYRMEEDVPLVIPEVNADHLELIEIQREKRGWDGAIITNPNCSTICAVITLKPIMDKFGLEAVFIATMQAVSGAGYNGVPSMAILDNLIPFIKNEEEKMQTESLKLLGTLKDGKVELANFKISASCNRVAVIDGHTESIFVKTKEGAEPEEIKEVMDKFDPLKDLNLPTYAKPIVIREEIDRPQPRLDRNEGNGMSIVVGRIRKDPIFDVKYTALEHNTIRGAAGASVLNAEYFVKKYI

Sequence of Bs-Asd (Q04797 whole entry E218Q): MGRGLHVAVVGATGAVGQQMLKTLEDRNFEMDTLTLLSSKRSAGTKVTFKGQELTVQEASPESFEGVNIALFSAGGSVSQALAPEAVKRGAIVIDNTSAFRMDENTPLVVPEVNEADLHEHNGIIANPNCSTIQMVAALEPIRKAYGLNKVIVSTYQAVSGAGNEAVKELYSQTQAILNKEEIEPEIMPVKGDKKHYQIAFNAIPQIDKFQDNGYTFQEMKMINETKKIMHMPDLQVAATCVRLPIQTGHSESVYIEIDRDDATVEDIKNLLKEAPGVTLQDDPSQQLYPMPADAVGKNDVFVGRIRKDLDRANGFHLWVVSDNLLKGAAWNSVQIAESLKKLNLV
Sequence of Ec-LysC (P08660 whole entry): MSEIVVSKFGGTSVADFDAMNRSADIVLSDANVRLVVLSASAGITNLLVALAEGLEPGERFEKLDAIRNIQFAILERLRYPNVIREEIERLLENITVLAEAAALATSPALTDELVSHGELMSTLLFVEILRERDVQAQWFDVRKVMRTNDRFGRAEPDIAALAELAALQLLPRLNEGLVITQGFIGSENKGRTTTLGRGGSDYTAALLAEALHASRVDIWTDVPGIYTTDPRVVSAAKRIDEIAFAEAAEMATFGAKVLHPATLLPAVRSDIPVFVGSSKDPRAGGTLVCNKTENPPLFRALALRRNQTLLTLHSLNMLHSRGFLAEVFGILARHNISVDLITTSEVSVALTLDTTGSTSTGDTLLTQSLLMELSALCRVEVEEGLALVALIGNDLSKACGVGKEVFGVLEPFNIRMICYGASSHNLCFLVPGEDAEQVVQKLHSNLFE

Structure (SMILES): N[C@@H](CC(=O)O)C(=O)O [(L)-aspartate]
- Km (Ec-LysC): Catalytic efficiency (kcat/Km) of wild-type aspartate kinase

Structure (SMILES): O=CC[C@H](O)C(=O)O [MSA, malate semialdehyde]
- Km (Ms-Ssr): 1.1 mM

Structure (SMILES): O=C(C[C@H](O)C(=O)O)OP(=O)(O)O [malyl-P, malyl-4-phosphate]
- NADPH oxidation, substrate made in situ by malate kinase (Bs-Asd): Bs-Asd E218Q mutant enzyme, which displayed an almost eightfold increased activity on malyl-P
- NADPH oxidation, substrate made in situ by malate kinase (Mj-Asd): Enzymatic activities of wild-type Bs-Asd and Mj-Asd on malyl-P were approximately threefold lower
